Experimental findings from ChEMBL document CHEMBL1201862, “PubChem BioAssay data set” (2004) are described below.

Calls of active or inactive are those of the source. Where only a bound is given, the exact number is not on record here.

The subject of experiment [1] is Vero. Nature of the experiment: cells. Type of experiment: functional. Conditions: Chlorocebus sabaeus.
For experiment [2], the target named is T1, Heat shock factor protein 1 (Mus musculus, UniProt P38532).
T1 sequence (P38532 whole entry): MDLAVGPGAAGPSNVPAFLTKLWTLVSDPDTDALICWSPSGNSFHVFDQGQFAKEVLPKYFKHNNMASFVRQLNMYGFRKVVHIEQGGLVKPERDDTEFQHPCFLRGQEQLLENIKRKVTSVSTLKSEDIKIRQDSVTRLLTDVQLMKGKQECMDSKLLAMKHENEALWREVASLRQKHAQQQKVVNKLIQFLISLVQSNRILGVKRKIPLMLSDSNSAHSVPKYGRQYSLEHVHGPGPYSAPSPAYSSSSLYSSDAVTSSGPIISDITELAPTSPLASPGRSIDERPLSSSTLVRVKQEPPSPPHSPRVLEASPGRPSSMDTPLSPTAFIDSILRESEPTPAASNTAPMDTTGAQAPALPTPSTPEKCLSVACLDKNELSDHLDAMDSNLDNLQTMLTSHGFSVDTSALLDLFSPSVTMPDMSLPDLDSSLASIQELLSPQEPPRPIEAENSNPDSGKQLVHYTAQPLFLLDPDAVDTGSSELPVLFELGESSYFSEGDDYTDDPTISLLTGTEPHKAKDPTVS
Nature of the experiment: enhancement of HSF1-driven luciferase signal – cell-based, NIH3T3, luminescence, dose retest, confirmation (AID 435004).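 Also: stress induced by proteasome inhibitor MG132 added 30 min after compound; luciferase reporter driven by HSF1 response element in NIH3T3 cells; actives raise luminescence as potentiators of the MG132 stress response.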 Type of experiment: functional.

A short description of experiment [3]: NIH3T3 cell viability loss – ATP luminescence, mouse fibroblasts, counter-screen, dose response (AID 2010).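 Also: cells exposed to compound for about 90 hours before reading.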 Type of experiment: functional, cell-based.
Experiment [4] in a line: Trypanosoma cruzi growth suppression in host cells – NIH3T3 host cells, beta-gal luminescence, confirmation (AID 2044).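 Also: intracellular parasites grown in NIH/3T3 mouse fibroblasts as host cells; luminescent beta-galactosidase reporter signal from transgenic T. cruzi replicating inside host cells; inhibitors lower the luminescence signal.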 The experiment is classed as functional, cell-based.
Experiment [5] can be described thus: acridine orange displacement from DNA – biochemical, fluorescence polarization, cherry-pick, artefact control for RAD54 inhibitor project, dose response (AID 651673). The experiment is classed as functional. (In general: In fluorescence polarisation assays a small probe gives low polarisation when free and higher when bound to something large.)
The nature of experiment [6]: protection from phage-mediated lysis, alamar blue read-out – E. coli UTI89, K1F phage, bacterial capsule biogenesis inhibitors (AID 488966). The experiment is classed as functional. In general terms: Resazurin is reduced to fluorescent resorufin, in cell work by metabolically active cells.
Experiment [7] deals with FAD-linked sulfhydryl oxidase ALR (Homo sapiens, UniProt P55789). The experiment can be described thus: ALR-catalysed DTT oxidation blockers – biochemical, H2O2 detection, luminescence, cherry-pick, dose response (AID 493248).
Sequence of FAD-linked sulfhydryl oxidase ALR (P55789 whole entry): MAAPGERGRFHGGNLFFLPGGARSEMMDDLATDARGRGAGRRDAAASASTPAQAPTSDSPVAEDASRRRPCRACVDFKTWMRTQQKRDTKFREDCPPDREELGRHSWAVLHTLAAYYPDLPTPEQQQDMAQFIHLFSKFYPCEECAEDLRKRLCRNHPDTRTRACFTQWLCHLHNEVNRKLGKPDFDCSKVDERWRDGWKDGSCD
Experiment [8] deals with T2, DNA repair protein RAD52 homolog (Homo sapiens, UniProt P43351).
T2 sequence (P43351 whole entry): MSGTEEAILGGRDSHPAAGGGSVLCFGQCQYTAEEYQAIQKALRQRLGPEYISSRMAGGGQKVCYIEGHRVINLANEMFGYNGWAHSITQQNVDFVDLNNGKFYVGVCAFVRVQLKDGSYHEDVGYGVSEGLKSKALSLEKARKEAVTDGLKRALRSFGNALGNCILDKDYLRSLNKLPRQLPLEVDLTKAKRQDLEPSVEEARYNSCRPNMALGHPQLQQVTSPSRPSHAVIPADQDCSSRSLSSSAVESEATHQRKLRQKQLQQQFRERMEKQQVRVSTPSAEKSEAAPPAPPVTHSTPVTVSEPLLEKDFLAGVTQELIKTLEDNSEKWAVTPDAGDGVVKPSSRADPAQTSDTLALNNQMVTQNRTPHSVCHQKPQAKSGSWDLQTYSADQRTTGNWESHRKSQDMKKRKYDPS
The experiment is classed as functional, biochemical.

Experiment [9] deals with T3, DNA repair and recombination protein RAD54-like (Homo sapiens, UniProt Q92698).
T3 sequence (Q92698 whole entry): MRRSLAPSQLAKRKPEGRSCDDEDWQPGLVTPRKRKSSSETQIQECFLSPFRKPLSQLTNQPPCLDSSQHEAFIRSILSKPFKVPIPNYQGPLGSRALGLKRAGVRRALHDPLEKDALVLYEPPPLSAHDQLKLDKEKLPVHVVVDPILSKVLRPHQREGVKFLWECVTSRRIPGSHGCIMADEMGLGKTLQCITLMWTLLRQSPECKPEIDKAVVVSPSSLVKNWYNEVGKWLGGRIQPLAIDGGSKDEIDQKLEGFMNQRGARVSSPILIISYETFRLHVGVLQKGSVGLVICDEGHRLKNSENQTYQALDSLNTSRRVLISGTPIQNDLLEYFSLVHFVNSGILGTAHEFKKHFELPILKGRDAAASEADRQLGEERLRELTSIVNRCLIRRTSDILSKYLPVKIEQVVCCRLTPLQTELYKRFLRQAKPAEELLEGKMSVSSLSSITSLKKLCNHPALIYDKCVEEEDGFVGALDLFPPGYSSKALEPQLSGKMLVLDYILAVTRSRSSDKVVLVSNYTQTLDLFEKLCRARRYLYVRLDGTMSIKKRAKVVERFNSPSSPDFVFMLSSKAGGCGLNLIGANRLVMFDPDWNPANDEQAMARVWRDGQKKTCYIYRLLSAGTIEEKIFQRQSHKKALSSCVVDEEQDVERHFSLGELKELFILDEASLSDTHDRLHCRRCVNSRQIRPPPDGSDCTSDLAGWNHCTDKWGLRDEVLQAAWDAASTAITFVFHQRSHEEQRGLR
The experiment can be described thus: RAD54 Holliday junction migration blockers – biochemical, fluorescence, cherry-picked samples, dose series, confirmation (AID 651657). Type of experiment: functional.

For experiment [10], the target named is T4, Histone-lysine N-methyltransferase NSD2 (Homo sapiens, UniProt O96028).
T4 sequence (O96028 whole entry): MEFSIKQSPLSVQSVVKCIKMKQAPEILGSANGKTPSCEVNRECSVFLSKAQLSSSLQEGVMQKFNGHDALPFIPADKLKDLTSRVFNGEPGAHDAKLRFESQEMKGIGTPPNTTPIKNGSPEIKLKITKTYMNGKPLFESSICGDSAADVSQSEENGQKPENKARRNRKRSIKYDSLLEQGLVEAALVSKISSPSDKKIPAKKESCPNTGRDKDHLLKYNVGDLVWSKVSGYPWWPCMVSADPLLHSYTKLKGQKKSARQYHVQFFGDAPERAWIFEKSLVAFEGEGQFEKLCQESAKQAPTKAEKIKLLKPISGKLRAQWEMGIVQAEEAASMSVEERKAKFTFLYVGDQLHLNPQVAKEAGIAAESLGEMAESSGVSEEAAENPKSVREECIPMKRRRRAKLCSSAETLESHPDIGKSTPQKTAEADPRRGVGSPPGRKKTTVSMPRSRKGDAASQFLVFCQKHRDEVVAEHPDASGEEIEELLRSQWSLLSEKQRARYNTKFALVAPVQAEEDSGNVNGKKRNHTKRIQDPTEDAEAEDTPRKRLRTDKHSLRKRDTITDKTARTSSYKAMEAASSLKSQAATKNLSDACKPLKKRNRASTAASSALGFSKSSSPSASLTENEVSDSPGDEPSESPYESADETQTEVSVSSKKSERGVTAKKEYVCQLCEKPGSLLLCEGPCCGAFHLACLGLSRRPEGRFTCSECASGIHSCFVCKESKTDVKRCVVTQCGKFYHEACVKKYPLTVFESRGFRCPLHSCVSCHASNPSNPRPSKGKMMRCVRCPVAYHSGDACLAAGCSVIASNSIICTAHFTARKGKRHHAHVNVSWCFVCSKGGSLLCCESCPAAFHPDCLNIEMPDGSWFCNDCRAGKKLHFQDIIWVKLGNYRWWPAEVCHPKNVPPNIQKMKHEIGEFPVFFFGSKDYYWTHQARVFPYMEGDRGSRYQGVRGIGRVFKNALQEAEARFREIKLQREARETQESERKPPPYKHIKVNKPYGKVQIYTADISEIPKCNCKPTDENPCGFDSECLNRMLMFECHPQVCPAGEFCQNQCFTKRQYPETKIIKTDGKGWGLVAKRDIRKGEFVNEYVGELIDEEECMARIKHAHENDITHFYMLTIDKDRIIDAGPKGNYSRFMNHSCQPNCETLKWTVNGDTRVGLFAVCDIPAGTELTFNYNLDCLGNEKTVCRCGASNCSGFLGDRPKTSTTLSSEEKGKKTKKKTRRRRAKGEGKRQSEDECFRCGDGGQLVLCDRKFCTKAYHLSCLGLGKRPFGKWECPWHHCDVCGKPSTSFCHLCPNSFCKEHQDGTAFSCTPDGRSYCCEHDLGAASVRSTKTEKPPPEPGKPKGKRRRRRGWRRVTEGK
The experiment is classed as biochemical.

For experiment [11], the target named is ORF 73 (Human herpesvirus 8, UniProt O40947). The experiment can be described thus: KSHV LANA DNA-binding disruption – biochemical, fluorescence polarization, cherry-picked samples, dose response (AID 504725).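 Also: fluorescence polarization of a labeled DNA duplex reporting LANA DNA binding; potency is for inhibitors that block LANA binding to the DNA.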 Details: species or system Human gammaherpesvirus 8.
Sequence of ORF 73 (O40947 whole entry, the tested form may be a part): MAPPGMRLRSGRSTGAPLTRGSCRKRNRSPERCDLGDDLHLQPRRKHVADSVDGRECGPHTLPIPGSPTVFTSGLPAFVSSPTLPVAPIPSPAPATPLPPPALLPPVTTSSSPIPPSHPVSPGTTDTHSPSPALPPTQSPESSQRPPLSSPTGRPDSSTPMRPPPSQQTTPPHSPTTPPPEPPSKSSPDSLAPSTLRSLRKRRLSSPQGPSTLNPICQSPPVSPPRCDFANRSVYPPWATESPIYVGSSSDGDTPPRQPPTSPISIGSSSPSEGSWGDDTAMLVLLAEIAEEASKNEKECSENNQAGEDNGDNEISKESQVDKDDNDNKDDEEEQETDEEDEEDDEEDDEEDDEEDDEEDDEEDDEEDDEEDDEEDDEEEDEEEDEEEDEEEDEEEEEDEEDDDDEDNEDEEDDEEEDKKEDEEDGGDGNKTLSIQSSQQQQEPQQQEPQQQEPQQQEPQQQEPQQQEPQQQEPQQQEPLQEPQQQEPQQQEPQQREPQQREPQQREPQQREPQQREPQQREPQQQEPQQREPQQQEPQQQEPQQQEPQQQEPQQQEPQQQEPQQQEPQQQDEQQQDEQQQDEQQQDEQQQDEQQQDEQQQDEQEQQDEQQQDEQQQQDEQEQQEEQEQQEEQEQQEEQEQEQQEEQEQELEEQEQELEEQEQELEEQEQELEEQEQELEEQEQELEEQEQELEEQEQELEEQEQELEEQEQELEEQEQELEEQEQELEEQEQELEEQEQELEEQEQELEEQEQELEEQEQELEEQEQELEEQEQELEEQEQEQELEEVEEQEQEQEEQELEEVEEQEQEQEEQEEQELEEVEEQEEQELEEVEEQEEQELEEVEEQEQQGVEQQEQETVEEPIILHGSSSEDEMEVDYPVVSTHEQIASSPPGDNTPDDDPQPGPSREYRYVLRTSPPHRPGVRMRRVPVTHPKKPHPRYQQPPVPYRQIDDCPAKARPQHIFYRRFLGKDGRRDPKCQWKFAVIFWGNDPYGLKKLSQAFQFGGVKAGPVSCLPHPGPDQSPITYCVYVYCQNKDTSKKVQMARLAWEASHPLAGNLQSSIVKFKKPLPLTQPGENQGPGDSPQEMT
In experiment [12] the target is T5, Carboxy-terminal domain RNA polymerase II polypeptide A small phosphatase 1 (Homo sapiens, UniProt Q9GZU7).
T5 sequence (Q9GZU7 whole entry): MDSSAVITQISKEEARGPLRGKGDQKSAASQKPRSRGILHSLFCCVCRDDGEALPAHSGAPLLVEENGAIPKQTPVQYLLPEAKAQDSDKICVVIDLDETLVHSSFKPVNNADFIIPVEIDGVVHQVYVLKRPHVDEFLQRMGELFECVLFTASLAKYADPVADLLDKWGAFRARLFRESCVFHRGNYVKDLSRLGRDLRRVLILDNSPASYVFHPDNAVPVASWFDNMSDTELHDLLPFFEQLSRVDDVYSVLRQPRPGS
Nature of the experiment: CTDSP1 inhibitors, concentration-response, biochemical, absorbance readout, ultra-high-throughput screen actives (AID 540297). The experiment is classed as functional.

The nature of experiment [13]: HEK-293T viability loss after treatment – luminescence, T-cell screen hits, cytotoxicity control for TCR NF-kB inhibitor project, dose response (AID 489026).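 Also: cells exposed to compound about 14 hours before the viability readout.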 Type of experiment: functional, cell-based.
For experiment [14], the system named is J774.A1. Nature of the experiment: Confirmation of image-based Screening Assay for Inhibitors of Phagocytosis. [Related pubchem assays (depositor defined):AID1029, AID1643]. The note with it: Mus musculus. Type of experiment: functional, cell-based.
The nature of experiment [15]: viability loss in Vero cells – cytotoxicity control for Vif-APOBEC3G degradation inhibitor project, dose response (AID 1117358). The note with it: Vero. The experiment is classed as functional.
Experiment [16] concerns the target Glutathione S-transferase omega-1 (Homo sapiens, UniProt P78417). The experiment can be described thus: IC50 of human GSTO1 blockade by gel ABPP – biochemical, SE-Rh probe, in-gel fluorescence, powder samples, set 2, late-stage follow-up (AID 463142). Type of experiment: functional.

Sequence of Glutathione S-transferase omega-1 (P78417 whole entry): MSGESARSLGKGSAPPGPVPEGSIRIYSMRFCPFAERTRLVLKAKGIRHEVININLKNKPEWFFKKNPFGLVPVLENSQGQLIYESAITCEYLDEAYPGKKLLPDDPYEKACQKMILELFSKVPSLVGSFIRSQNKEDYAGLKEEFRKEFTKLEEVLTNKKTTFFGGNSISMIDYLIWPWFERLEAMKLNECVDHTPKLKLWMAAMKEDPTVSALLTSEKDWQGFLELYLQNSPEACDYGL

As usually defined, the CC50 is the concentration at which the toxic effect on the cells reaches its halfway point. By EC50 is commonly meant the concentration that produces a half-maximal response. For orientation: AC50 means the concentration giving half of the maximal activity seen. One may read the IC50 as the midpoint of a concentration-inhibition curve. Consider `CN1CCN(c2ccc(Nc3ccnc4cc(Cl)ccc34)cc2)CC1`, for which the CC50 in [1] is 17.1 µM (active). Besides, the figures for the EC50 in experiment [2], in experiment [3] and in experiment [4] were > 260 µM (inactive), 10.4 µM (active) and 1.39 µM (active), respectively. The AC50 in experiment [5] is 56.1 µM (active); in experiment [7] it was 5.43 µM (active); in experiment [8], 2.47 µM (active); in experiment [9], 6.94 µM (active). The IC50 in experiment [6] is > 300 µM (active).
With `O=C(O)COc1ccc2c(c1)O/C(=C\c1ccco1)C2=O`, the AC50 in experiment [10] was > 20 µM (inactive); in experiment [11], 157 µM (active). Also, the IC50 in experiment [12] was 3.74 µM (active).
As to `COc1ccc(C2=NOC(C(=O)NCc3cccs3)C2)cc1OC` (stereo unspecified), the figures for the IC50 in experiment [13] and in experiment [14] were > 80 µM (inactive) and 0.609 µM (active), respectively. Also, the CC50 in experiment [15] is > 40 µM (active).
As for `O=C(CCl)N(CCCCCNC(=O)C(F)(F)F)c1ccc([N+](=O)[O-])cc1`, the IC50 in experiment [16] was 0.034 µM (active).
